Test system: spermatozoa
Conditions: calcium compound substituted for calcium chloride in Ringer's lactate; culturing 1-24 hr

Row | Molecule | semen function (percent motility, FIGS. 5a and 5b)
1 | calcium phosphate | maintained best
2 | O=C([O-])[O-].[Ca+2] [calcium carbonate] | maintained best
3 | calcium gluconate | maintained best
